Assay: xn = mol fraction of the nth substance listed

CCCCOCCO + Cc1ccc(C)cc1
viscosity [mPa·s], 101 kPa
Conditions | 298.15 K | 308.15 K
x1 = 0.0541 | 0.566 | 0.647
x1 = 0.1518 | 0.625 | 0.725
x1 = 0.2496 | 0.695 | 0.817
x1 = 0.3502 | 0.784 | 0.933
x1 = 0.451 | 0.894 | 1.076
x1 = 0.5028 | 0.961 | 1.162
x1 = 0.5533 | 1.033 | 1.256
x1 = 0.6489 | 1.194 | 1.465
x1 = 0.7493 | 1.404 | 1.739
x1 = 0.8519 | 1.676 | 2.092
x1 = 0.9561 | 2.029 | 2.551

CCOC(=O)CCl + Cc1ccc(C)cc1
viscosity [mPa·s], 101.3 kPa
Conditions | x1 = 0.0994 | x1 = 0.1995 | x1 = 0.3008 | x1 = 0.3992 | x1 = 0.5001 | x1 = 0.601 | x1 = 0.6994 | x1 = 0.7968 | x1 = 0.8943
298.15 K | 0.635 | 0.663 | 0.699 | 0.735 | 0.783 | 0.832 | 0.886 | 0.949 | 1.017
303.15 K | 0.599 | 0.624 | 0.656 | 0.691 | 0.734 | 0.778 | 0.827 | 0.882 | 0.945
308.15 K | 0.563 | 0.586 | 0.615 | 0.646 | 0.686 | 0.726 | 0.768 | 0.816 | 0.874

CCCCOCCO + Cc1cccc(C)c1
viscosity [mPa·s], 101 kPa
Conditions | 298.15 K | 308.15 K
x1 = 0.056 | 0.625 | 0.534
x1 = 0.152 | 0.711 | 0.602
x1 = 0.2496 | 0.813 | 0.686
x1 = 0.3506 | 0.941 | 0.786
x1 = 0.4512 | 1.095 | 0.908
x1 = 0.5022 | 1.185 | 0.979
x1 = 0.5529 | 1.284 | 1.056
x1 = 0.6487 | 1.501 | 1.225
x1 = 0.7505 | 1.781 | 1.442
x1 = 0.8511 | 2.122 | 1.704
x1 = 0.9549 | 2.56 | 2.037

CCCCCCCCN(CCCCCCCC)CCCCCCCC + Cc1ccccc1
298.15 K, 101.33 kPa
Conditions | viscosity [mPa·s]
x1 = 0.015 | 0.595
x1 = 0.033 | 0.646
x1 = 0.075 | 0.775
x1 = 0.231 | 1.405

CCCCOCCO + Cc1ccccc1
viscosity [mPa·s], 101 kPa
Conditions | 298.15 K | 308.15 K
x1 = 0.055 | 0.593 | 0.531
x1 = 0.1509 | 0.678 | 0.597
x1 = 0.2513 | 0.784 | 0.679
x1 = 0.3489 | 0.909 | 0.775
x1 = 0.4511 | 1.066 | 0.896
x1 = 0.5015 | 1.156 | 0.965
x1 = 0.5525 | 1.257 | 1.042
x1 = 0.6512 | 1.483 | 1.215
x1 = 0.7494 | 1.759 | 1.425
x1 = 0.8498 | 2.105 | 1.689
x1 = 0.9541 | 2.551 | 2.03

From the CheMixHub viscosity set
